Measured values published in US20230295142A1, “NOVEL COMPOUNDS AS HISTONE DEACETYLASE 6 INHIBITOR, AND PHARMACEUTICAL COMPOSITION COMPRISING THE SAME” (CHONG KUN DANG PHARMACEUTICAL CORP., priority 2020, published 2023).

Experiments:
HDAC1 = HDAC1 (Homo sapiens (Human), UniProt Q13547); assay: HDAC1 enzyme activity inhibition (HDAC1 Fluorimetric Drug Discovery Assay Kit); assay type: biochemical; details: samples at 100, 1000 and 10000 nM; 37° C. 60 minutes
Procedure: (§1) A HDAC enzyme inhibitory capacity of a test material was measured by using HDAC1 Fluorimetric Drug Discovery Assay Kit (Enzolifesciences: BML-AK511) and HDAC6 human recombinant (Calbiochem: 382180). For a HDAC1 assay, samples were treated at a concentration of 100, 1000 and 10000 nM. For a HDAC6 assay, samples were treated at a concentration of 0.1, 1, 10, 100 and 1000 nM. After the above sample treatment, a reaction was continued at 37° C. for 60 minutes, treated with a developer, and subjected to reaction at 37° C. for 30 minutes, after which fluorescence intensity (Ex 390, Em 460) was measured by using FlexStatin3 (Molecular device).

HDAC6 human recombinant = HDAC6 human recombinant (Homo sapiens (Human), UniProt Q9UBN7); assay: HDAC6 enzyme activity inhibition (fluorimetric, in vitro); assay type: biochemical; details: samples at 0.1, 1, 10, 100 and 1000 nM; 37° C. 60 minutes
Procedure: as §1

HDAC6 human recombinant, sequence (Q9UBN7 whole entry): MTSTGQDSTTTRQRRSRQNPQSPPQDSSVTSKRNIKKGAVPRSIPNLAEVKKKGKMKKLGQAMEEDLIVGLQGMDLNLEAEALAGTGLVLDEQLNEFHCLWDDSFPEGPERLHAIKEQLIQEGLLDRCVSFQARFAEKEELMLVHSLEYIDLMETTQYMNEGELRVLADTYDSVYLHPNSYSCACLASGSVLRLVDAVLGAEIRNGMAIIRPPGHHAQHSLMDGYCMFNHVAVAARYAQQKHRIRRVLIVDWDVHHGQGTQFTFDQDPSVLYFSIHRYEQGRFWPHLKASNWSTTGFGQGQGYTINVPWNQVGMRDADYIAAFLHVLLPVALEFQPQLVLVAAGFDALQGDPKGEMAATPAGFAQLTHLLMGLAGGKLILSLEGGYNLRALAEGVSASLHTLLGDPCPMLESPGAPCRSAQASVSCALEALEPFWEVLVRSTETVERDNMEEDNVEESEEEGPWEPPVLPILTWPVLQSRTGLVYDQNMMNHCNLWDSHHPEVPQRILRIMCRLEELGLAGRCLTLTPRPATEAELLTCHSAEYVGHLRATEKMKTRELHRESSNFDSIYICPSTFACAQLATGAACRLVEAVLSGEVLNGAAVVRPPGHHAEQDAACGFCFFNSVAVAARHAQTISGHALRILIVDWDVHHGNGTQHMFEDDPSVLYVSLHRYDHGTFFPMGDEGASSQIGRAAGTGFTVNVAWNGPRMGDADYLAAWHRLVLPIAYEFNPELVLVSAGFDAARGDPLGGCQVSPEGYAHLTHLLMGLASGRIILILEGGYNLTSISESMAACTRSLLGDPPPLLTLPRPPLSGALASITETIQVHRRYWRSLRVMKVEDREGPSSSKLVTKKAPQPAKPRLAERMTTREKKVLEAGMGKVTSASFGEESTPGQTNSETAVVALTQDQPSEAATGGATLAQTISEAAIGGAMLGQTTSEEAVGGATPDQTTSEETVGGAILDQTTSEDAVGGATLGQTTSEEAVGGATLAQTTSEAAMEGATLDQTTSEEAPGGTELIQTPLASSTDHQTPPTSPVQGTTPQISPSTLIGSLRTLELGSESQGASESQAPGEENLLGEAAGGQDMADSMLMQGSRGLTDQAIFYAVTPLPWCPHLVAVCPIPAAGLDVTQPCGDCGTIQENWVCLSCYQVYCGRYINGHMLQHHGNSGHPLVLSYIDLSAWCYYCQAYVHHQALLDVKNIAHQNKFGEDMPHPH
HDAC1, sequence (Q13547 whole entry): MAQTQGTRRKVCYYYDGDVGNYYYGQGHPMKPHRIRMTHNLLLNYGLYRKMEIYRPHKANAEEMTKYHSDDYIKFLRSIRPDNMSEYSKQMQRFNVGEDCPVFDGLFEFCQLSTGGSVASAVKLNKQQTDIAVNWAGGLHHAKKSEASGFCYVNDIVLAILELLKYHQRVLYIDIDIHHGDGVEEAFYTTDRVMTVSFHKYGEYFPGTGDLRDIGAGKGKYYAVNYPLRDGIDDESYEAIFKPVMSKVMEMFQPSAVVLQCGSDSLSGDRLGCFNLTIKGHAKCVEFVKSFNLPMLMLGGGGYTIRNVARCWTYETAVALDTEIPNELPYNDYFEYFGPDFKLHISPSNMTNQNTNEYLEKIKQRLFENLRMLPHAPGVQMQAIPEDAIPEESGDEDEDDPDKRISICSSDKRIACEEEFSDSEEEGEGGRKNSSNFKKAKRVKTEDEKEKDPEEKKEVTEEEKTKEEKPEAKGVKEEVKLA

IC50 (HDAC1) [nM] | IC50 (HDAC6 human recombinant) [nM] | SMILES
> 10000 | 56 | O=C1N(Cc2ccc(-c3nnc(C(F)F)o3)cn2)C(=O)C2(CCC2)N1c1ccccc1 [Compound 24, 7-((5-(5-(difluoromethyl)-1,3,4-oxadiazol-2-yl)pyridin-2-yl)methyl)-5-phenyl-5,7-diazaspiro[3.4]octan-6,8-dione]
> 10000 | 106 | CC1(C)C(=O)N(Cc2ccc(-c3nnc(C(F)F)o3)cn2)C(=O)N1c1ccc(-c2ccoc2)cc1 [Compound 25, 3-((5-(5-(difluoromethyl)-1,3,4-oxadiazol-2-yl)pyridin-2-yl)methyl)-1-(4-(furan-3-yl)phenyl)-5,5-dimethylimidazolidin-2,4-dione]
> 10000 | 48 | CC1(C)C(=O)N(Cc2ccc(-c3nnc(C(F)F)o3)cn2)C(=O)N1c1ccc(-c2ccncc2)cc1 [Compound 26, 3-((5-(5-(difluoromethyl)-1,3,4-oxadiazol-2-yl)pyridin-2-yl)methyl)-5,5-dimethyl-1-(4-(pyridin-4-yl)phenyl)imidazolidin-2,4-dione]
> 10000 | 55 | CC1(C)C(=O)N(Cc2ccc(-c3nnc(C(F)F)o3)cn2)C(=O)N1c1ccc(-c2cccnc2)cc1 [Compound 27, 3-((5-(5-(difluoromethyl)-1,3,4-oxadiazol-2-yl)pyridin-2-yl)methyl)-5,5-dimethyl-1-(4-(pyridin-3-yl)phenyl)imidazolidin-2,4-dione]
> 10000 | 165 | CC1(C)C(=O)N(Cc2ccc(-c3nnc(C(F)F)o3)cn2)C(=O)N1c1ccc(-c2ccccc2F)cc1 [Compound 29, 3-((5-(5-(difluoromethyl)-1,3,4-oxadiazol-2-yl)pyridin-2-yl)methyl)-1-(2′-fluoro-[1,1′-biphenyl]-4-yl)-5,5-dimethylimidazolidin-2,4-dione]
> 10000 | 578 | CC(C)(C)OC(=O)n1ccc2c(N3C(=O)N(Cc4ccc(-c5nnc(C(F)F)o5)cn4)C(=O)C3(C)C)cccc21 [Compound 30, tert-butyl 4-(3-((5-(5-(difluoromethyl)-1,3,4-oxadiazol-2-yl)pyridin-2-yl)methyl)-5,5-dimethyl-2,4-dioxoimidazolidin-1-yl)-1H-indol-1-carboxylate]
> 10000 | 316 | CC(C)(C)OC(=O)N1CCc2c1cccc2N1C(=O)N(Cc2ccc(-c3nnc(C(F)F)o3)cn2)C(=O)C1(C)C [Compound 31, tert-butyl 4-(3-((5-(5-(difluoromethyl)-1,3,4-oxadiazol-2-yl)pyridin-2-yl)methyl)-5,5-dimethyl-2,4-dioxoimidazolidin-1-yl)indolin-1-carboxylate]
> 10000 | 55 | CC1(C)C(=O)N(Cc2ccc(-c3nnc(C(F)F)o3)cn2)C(=O)N1c1cccc2[nH]ccc12 [Compound 32, 3-((5-(5-(difluoromethyl)-1,3,4-oxadiazol-2-yl)pyridin-2-yl)methyl)-1-(1H-indol-4-yl)-5,5-dimethylimidazolidin-2,4-dione]
> 10000 | 58 | CC1(C)C(=O)N(Cc2ccc(-c3nnc(C(F)F)o3)cn2)C(=O)N1c1cccc2c1CCN2 [Compound 33, 3-((5-(5-(difluoromethyl)-1,3,4-oxadiazol-2-yl)pyridin-2-yl)methyl)-1-(indolin-4-yl)-5,5-dimethylimidazolidin-2,4-dione]
> 10000 | 46 | CC1(C)C(=O)N(Cc2ccc(-c3nnc(C(F)F)o3)cn2)C(=O)N1c1cccc([N+](=O)[O-])c1 [Compound 34, 3-((5-(5-(difluoromethyl)-1,3,4-oxadiazol-2-yl)pyridin-2-yl)methyl)-5,5-dimethyl-1-(3-nitrophenyl)imidazolidin-2,4-dione]
> 10000 | 52 | CC1(C)C(=O)N(Cc2ccc(-c3nnc(C(F)F)o3)cn2)C(=O)N1c1cccc(N)c1 [Compound 35, 1-(3-aminophenyl)-3-((5-(5-(difluoromethyl)-1,3,4-oxadiazol-2-yl)pyridin-2-yl)methyl)-5,5-dimethylimidazolidin-2,4-dione]
> 10000 | 35 | CC(=O)Nc1cccc(N2C(=O)N(Cc3ccc(-c4nnc(C(F)F)o4)cn3)C(=O)C2(C)C)c1 [Compound 36, N-(3-(3-((5-(5-(difluoromethyl)-1,3,4-oxadiazol-2-yl)pyridin-2-yl)methyl)-5,5-dimethyl-2,4-dioxoimidazolidin-1-yl)phenyl)acetamide]
> 10000 | 68 | CC(=O)N1CCc2c1cccc2N1C(=O)N(Cc2ccc(-c3nnc(C(F)F)o3)cn2)C(=O)C1(C)C [Compound 37, 1-(1-acetylindolin-4-yl)-3-((5-(5-(difluoromethyl)-1,3,4-oxadiazol-2-yl)pyridin-2-yl)methyl)-5,5-dimethylimidazolidin-2,4-dione]

SMILES | IC50 (HDAC1) [nM] | IC50 (HDAC6 human recombinant) [nM]
CC1(C)C(=O)N(Cc2ccc(-c3nnc(C(F)F)o3)cn2)C(=O)N1c1ccc(-c2cccc(F)c2)cc1 [Compound 28, 3-((5-(5-(difluoromethyl)-1,3,4-oxadiazol-2-yl)pyridin-2-yl)methyl)-1-(3′-fluoro-[1,1′-biphenyl]-4-yl)-5,5-dimethylimidazolidin-2,4-dione] | > 10000 | 168
